One experiment concerns Casein Kinase II. Description: Assay for inhibition of casein kinase II activity. The settings on record: [33P]ATP. The experiment is classed as biochemical. The protocol: The inhibition of the kinase activity is determined by measuring the phosphorylation of its substrate peptide.
(§1) The assay is carried out in a final volume of 50 μl.
(§2) The incubation buffer is as follows:
• 30 mM MES pH 6.9 • 15 mM MgCl2 • 195 mM KCl • 7.25 mM DTT 5 μl of the 10-times concentrated inhibitor are added to 25 μl of incubation buffer containing 1 U/μl final concentration of the enzyme (Tebu, SE-124); 10 μl of incubation buffer containing 60 μM final concentration of peptide substrate are then added, and, finally, 10 μl of incubation buffer containing 25 μM ATP and radiolabeled ATP, [^33P]ATP (0.25 μCi), are added. The reaction is stopped after incubation for 30 minutes at ambient temperature. • Results obtained expressed as percentage inhibition at 20 μM • Example 8 93% • Example 30 97% 8) Assay for Inhibition for CAN Kinase II Activity

In the next experiment the target is AKT kinase (Homo sapiens, UniProt P31749). Description: Assay for inhibition of AKT activity. In kind it is biochemical. The settings on record: fluorescence polarization, ATP 80 μM; read-out: IC50s expressed as micromolar. As to the method:
The inhibition of the kinase activity is determined by fluorescence polarization, the AKT kinase phosphorylates a peptide detected by adding an anti-phosphopeptide antibody coupled to a fluorescent label.
The assay is carried out in a final volume of 30 μl; all the reagents are prepared in a buffer: • 50 mM HEPES pH 7.5 • 0.03% triton X100 • 10 mM MgCl2 • 5% Glycerol • 1 mM DTT 10 μl of the 10-times concentrated inhibitor are added to 5 μl of enzyme (20 ng final concentration), and 5 μl of peptide (1 μM final concentration) and 10 μl of ATP (80 μM. final concentration) are added.

In another experiment the test system is Aspergillus fumigatus. Description: Minimum inhibitory concentration in liquid medium, micro method (NCCLS M27-A). The settings on record: Aspergillus fumigatus; at least 80% inhibition of growth, read after 48-72 h at 37° C., RPMI 1640. The experiment is classed as cell-based.
The target in experiment [1] is Cyclin Dependent kinase 2 (CDK2) (Homo sapiens, UniProt P24941). Kind of experiment: Assay for inhibition of CDK2 activity. In kind it is biochemical. The settings on record: [33P]ATP, read-out: percentage inhibition at 20 μM. As to the method:
The inhibition of the kinase activity of Cyclin Dependent kinase 2 (CDK2) is determined by measuring the phosphorylation of its substrate peptide.
as §1
The incubation buffer as follows:
• 50 mM Hepes/NaOH pH 7.5 • 10 mM MgCl2 • 1 mM DTT 5 μl of the 10-times concentrated inhibitor are added to 25 μl of incubation buffer containing 0.8 U/μL final concentration of the enzyme; 10 μL of incubation buffer containing 0.0025 mg/ml of peptide substrate are then added and, finally, 10 μL of incubation buffer containing 2 mM ATP and radiolabeled ATP, [^33P]ATP (0.25 μCi), are added. The reaction is stopped after incubation for 10 minutes at 37° C. • Results obtained expressed as percentage inhibition at 20 μM • Example 2 97% • Example 27 97% • Example 30 99% 4) Assay for Inhibition of CDK1 Activity

In another experiment the test system is CAN Kinase II. Kind of experiment: Assay for inhibition for CAN kinase II activity. The settings on record: [33P]ATP, calmodulin. In kind it is biochemical. As to the method:
The inhibition of the kinase activity is determined by. measuring the phosphorylation of its substrate peptide.
as §1, §2
• 20 mM MOPS pH 7.4 • 5 mM MgCl2 • 5 mM CaCl2 • 1 mM DTT • 100 μM Na2VO4 • 25 mM Beta-glycerophosphate 5 μl of the 10-times concentrated inhibitor are added to 25 μl of incubation buffer containing 0.2 μg/μl final concentration of the enzyme (Tebu, SE-134); 10 μl of incubation buffer containing 5 μM final concentration of substrate and 1600 U/ml final concentration of calmodulin are then added and, finally, 10 μl of incubation buffer containing 20 μM ATP and radiolabeled ATP, [^33P]ATP (0.05 μCi), are added. The reaction is stopped after incubation for 40 minutes at ambient temperature. • Results obtained expressed as percentage inhibition at 20 μM • Example 30 98% 9) Assay for Inhibition of EGF tyr Kinase Activity

Sequence of AKT kinase (P31749 whole entry): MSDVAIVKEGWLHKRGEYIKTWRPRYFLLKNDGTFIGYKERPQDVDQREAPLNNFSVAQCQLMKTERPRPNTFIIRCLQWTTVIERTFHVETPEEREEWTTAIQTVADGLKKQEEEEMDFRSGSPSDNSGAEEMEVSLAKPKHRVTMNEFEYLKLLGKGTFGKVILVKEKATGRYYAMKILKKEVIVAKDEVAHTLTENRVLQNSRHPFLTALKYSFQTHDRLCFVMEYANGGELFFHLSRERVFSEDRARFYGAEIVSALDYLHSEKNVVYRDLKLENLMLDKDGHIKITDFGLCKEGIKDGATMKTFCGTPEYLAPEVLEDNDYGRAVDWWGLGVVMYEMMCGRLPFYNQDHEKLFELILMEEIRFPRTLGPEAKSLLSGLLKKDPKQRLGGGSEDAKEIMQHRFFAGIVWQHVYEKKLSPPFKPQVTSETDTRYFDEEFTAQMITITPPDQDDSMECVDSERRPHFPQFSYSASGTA

For `Cl.N[C@H]1CC[C@H](Nc2nc(-n3cnc4cc(Cl)c(Cl)cc43)c3nc[nH]c3n2)CC1` [Example 8, Trans-N-[6-(5,6-dichloro-1H-benzimidazol-1-yl)-9H-purin-2-yl]-1,4-cyclohexanediamine hydrochloride], in the experiment with Casein Kinase II, the “percentage inhibition at 20 μM” value is reported as 93%. In addition, the IC50 on AKT kinase was 0.46 µM. For the same molecule, 32 mg/L was the least that counted as inhibitory against Aspergillus fumigatus (MIC).

For the molecule `Cl.Cl.N[C@H]1CC[C@H](Nc2nc(N3CCc4cc([N+](=O)[O-])ccc43)c3nc[nH]c3n2)CC1` [Example 30, Trans-N-[6-(2,3-dihydro-5-nitro-1H-indol-1-yl)-9H-purin-2-yl]-1,4-cyclohexanediamine dihydrochloride], in experiment [1], the inhibition at 20 µM came out at 99%. The “percentage inhibition at 20 μM” value in the experiment with Casein Kinase II came out at 97%; in the experiment on CAN Kinase II, 98%.

Source of the values: US7476670B2, “Purine derivatives, method for preparing, pharmaceutical compositions and novel use” (Aventis Pharma S.A., priority 2003, dated 2009).
